Each structure is given as a SMILES string. Entries after “also recorded” stand apart in the source; their conditions may differ.

Holding throughout (type): biochemical
Test [1] has as its target T1, β-glucocerebrosidase (Mus musculus, UniProt P17439).
T1 construct: mouse liver microsome as an enzyme source; from tissue; host or cells: mouse liver microsome
T1 sequence (P17439 20-515): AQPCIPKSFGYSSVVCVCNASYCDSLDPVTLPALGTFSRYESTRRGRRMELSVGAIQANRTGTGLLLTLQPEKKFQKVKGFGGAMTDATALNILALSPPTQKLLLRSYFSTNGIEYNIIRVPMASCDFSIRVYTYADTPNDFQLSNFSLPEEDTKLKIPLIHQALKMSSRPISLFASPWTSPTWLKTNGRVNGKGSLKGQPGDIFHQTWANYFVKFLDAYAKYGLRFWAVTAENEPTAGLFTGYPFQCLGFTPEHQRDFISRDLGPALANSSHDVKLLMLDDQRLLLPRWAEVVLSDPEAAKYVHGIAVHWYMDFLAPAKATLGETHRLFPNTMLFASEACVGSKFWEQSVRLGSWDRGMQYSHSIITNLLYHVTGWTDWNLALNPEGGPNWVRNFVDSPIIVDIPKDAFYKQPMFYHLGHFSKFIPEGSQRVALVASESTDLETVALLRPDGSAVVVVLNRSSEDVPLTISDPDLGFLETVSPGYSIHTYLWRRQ
Description: β-glucocerebrosidase inhibition with NBD-glucocerebroside (fluorescence-labeled natural substrate), mouse liver microsome. The following applies: for inhibition at 10 µM / IC50: NBD-glucocerebroside, mouse liver microsome; for inhibition at 10 µM / inhibition of β-glucocerebrosidase activity (in words): 10 μM; for enhancement of β-glucocerebrosidase inhibition compared with C-1 and C-3 (in words): compared with saturated analogs C-1 and C-3. The procedure:
(§1) Glycosidase inhibitory effects of glycolipid analogs (1) The inhibitory effects of each of compounds 1E, 1Z, 2E and 2Z synthesized in Examples 1 to 4 on β-glucocerebrosidase and β-galactocerebrosidase were determined by using fluorescence-labeled natural substrates, i.e., 12-[N-methyl-N-(7-nitro-2-oxa-1,3-diaxol-4-yl)]aminododecanoic acid (NBD)-glucocerebroside and NBD-galactocrebroside. Namely, the β-glucocerebrosidease activity was determined in accordance with the method of Granbowski et al. [Clin. Chim. Acta., […], 123-135 (1982)] with the use of mouse liver microsome as an enzyme source. On the other hand, the β-galactocerebrosidase activity was determined in accordance with the method of Raghavan et al. [Biochim. Biophys. Acta, 877, 1-8 (1986)] with the use of mouse brain microsome as an enzyme source. […] Each substrate was used in a constant and large excess amount over the corresponding enzyme. […] IC50 levels (the concentration necessary for inhibiting 50% of the enzyme activity) of compounds 1E and 1Z were 0.3 μM and 0.1 μM, respectively. […] The inhibition (%) was determined in accordance with the following formula. [formula]
(§2) Under the same conditions as employed above, further, the inhibitory effects of the following compound C-1 [in the formula (a), X=NH, sugar analog=glucose type] being similar to the glycolipid analogs of the present invention and the sugar analogs C-2 to C-4 represented by the following formula [synthesized by the method similar to in the synthesis of compound C-1] were examined and compared.

The target of test [2] is T2, β-galactocerebrosidase (Mus musculus, UniProt P54818).
T2 construct: mouse brain microsome as an enzyme source; from tissue; host or cells: mouse brain microsome
T2 sequence (P54818 43-684): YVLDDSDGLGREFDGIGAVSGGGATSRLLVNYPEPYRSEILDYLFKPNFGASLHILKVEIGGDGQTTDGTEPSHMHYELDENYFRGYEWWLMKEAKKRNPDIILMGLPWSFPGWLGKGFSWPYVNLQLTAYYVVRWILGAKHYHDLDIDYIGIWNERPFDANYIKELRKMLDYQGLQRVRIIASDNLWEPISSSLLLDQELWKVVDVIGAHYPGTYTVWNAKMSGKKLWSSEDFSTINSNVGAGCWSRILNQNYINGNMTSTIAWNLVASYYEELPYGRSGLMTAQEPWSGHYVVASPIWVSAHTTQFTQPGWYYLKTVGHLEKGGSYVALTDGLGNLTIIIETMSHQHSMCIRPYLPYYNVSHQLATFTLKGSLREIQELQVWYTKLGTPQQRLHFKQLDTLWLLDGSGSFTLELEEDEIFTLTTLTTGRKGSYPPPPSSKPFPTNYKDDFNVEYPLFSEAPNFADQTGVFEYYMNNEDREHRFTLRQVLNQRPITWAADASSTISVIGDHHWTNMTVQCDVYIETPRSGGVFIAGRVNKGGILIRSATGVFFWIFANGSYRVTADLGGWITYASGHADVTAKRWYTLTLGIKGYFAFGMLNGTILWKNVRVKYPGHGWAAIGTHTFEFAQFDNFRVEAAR
Description: β-galactocerebrosidase inhibition with NBD-galactocerebroside (fluorescence-labeled natural substrate), mouse brain microsome. The following applies: for inhibition at 10 µM / IC50: NBD-galactocerebroside, mouse brain microsome; for inhibition at 10 µM / inhibition of β-galactocerebrosidase activity (in words): 10 μM. The procedure:
as §1, §2

Test [3] deals with T1, β-glucocerebrosidase. Description: β-glucocerebrosidase inhibition with 4-methyl-umbelliferyl glucoside as substrate. Particulars: mouse liver microsome. On the procedure:
(§3) (2) The inhibitory effects of each of compounds 1E, 1Z, 2E and 2Z synthesized in Examples 1 to 4, the above-described compound C-1 and the following compounds C-5 and C-6 on β-glucocerebrosidase and β-galactocerebrosidase were determined by the following method. Namely, the same enzyme sources as employed in the above (1) were used, while 4-methyl-umbelliferyl glucoside was used as a substrate. The inhibition (%) and IC50 were determined in accordance with the method of Peter et al. [Clin. Chim. Acta, 60, 391-396 (1975)]. In each case, the substrate was used in a constant and large excess amount over the corresponding enzyme.

Test [4] concerns β-galactocerebrosidase. Description: β-galactocerebrosidase inhibition, 4-methyl-umbelliferyl substrate. Particulars: mouse brain microsome, 4-methyl-umbelliferyl glucoside. The procedure:
as §3

`CCCCCCCCCCCCC/C=C/[C@@H](O)[C@H](CN[C@@H]1C[C@H](CO)[C@@H](O)[C@H](O)[C@H]1O)NC(=O)CCCCCCCCCCCCCCC` [Compound C-1, reference compound]: the figures for the inhibition at 10 µM on β-glucocerebrosidase [1] and against β-galactocerebrosidase [2] were 37.3% and 0%, respectively. On β-glucocerebrosidase [3], this compound had an inhibition at 40 µM of 56%. The “40 μM inhibition (%)” value with β-galactocerebrosidase [4] came to 7%.
Regarding `CCCCCCCCCCCCC/C=C/[C@@H](O)[C@H](CN[C@@H]1C[C@H](CO)[C@H](O)[C@H](O)[C@H]1O)NC(=O)CCCCCCCCCCCCCCC` [Compound C-2, reference compound], the inhibition at 10 µM amounted to 0% against β-glucocerebrosidase [1] and 12.9% against β-galactocerebrosidase [2]. In addition, the “inhibition of β-galactocerebrosidase activity (in words)” value on β-galactocerebrosidase [2] is on record as “slightly inhibited the β-galactocerebrosidase activity”.
For `CCCCCCCCCCCCC/C=C/[C@@H](O)[C@H](CN[C@@H]1C=C(CO)[C@H](O)[C@H](O)[C@H]1O)NC(=O)CCCCCCCCCCCCCCC` [Compound 2E, (2S,3R,4E)-1-[(5a-carba-α-L-arabino-hex-5-enopyranosyl)amino]-2-(hexadecanoylamino)-4-octadecen-3-ol], 10 µM produced 0% inhibition against β-glucocerebrosidase [1]. At β-galactocerebrosidase [2], the “inhibition of β-galactocerebrosidase activity (in words)” value is “strongly and specifically inhibited the β-galactocerebrosidase activity alone”; the inhibition at 10 µM is 92.6%; the concentration for half-maximal inhibition (IC50) came out at 1600 nM. This compound came in with an inhibition at 40 µM against β-glucocerebrosidase [3] of 31%. In the test on β-galactocerebrosidase [4], the “40 μM inhibition (%)” value worked out at 95% and the half-inhibitory concentration (IC50) amounted to 1250 nM.
In the case of `CCCCCCCCCCCCC/C=C/[C@@H](O)[C@H](CS[C@@H]1C[C@H](CO)[C@@H](O)[C@H](O)[C@H]1O)NC(=O)CCCCCCCCCCCCCCC` [Compound C-6, reference compound], the inhibition at 40 µM against β-glucocerebrosidase [3] was determined as 0%. In addition, the “40 μM inhibition (%)” value in the test with β-galactocerebrosidase [4] turned out to be 0%.
On to `CCCCCCCCCCCCC/C=C\[C@@H](O)[C@H](CN[C@@H]1C[C@H](CO)[C@@H](O)[C@H](O)[C@H]1O)NC(=O)CCCCCCCCCCCCCCC` [Compound C-3, reference compound], for which the results for the inhibition at 10 µM at β-glucocerebrosidase [1] and against β-galactocerebrosidase [2] were 64% and 2.3%, respectively.
At β-glucocerebrosidase [1], `CCCCCCCCCCCCC/C=C\[C@@H](O)[C@H](CN[C@@H]1C=C(CO)[C@H](O)[C@H](O)[C@H]1O)NC(=O)CCCCCCCCCCCCCCC` [Compound 2Z, (2S,3R,4Z)-1-[(5a-carba-α-L-arabino-hex-5-enopyranosyl)amino]-2-(hexadecanoylamino)-4-octadecen-3-ol] displayed an inhibition at 10 µM of 0%. Besides, on β-galactocerebrosidase [2], the “inhibition of β-galactocerebrosidase activity (in words)” value is “strongly and specifically inhibited the β-galactocerebrosidase activity alone”; 10 µM produced 87.2% inhibition; inhibition was half-maximal at 2300 nM (IC50). On β-glucocerebrosidase [3], this compound registered an inhibition at 40 µM of 43%. In the test on β-galactocerebrosidase [4], the “40 μM inhibition (%)” value came to 92% and the midpoint of inhibition, the IC50, lay at 1850 nM.
Consider `CCCCCCCCCCCCC/C=C\[C@@H](O)[C@H](CN[C@@H]1C=C(CO)[C@@H](O)[C@H](O)[C@H]1O)NC(=O)CCCCCCCCCCCCCCC` [Compound 1Z, (2S,3R,4Z)-1-[(5a-carba-β-D-xylo-hex-5-enopyranosyl)amino]-2-(hexadecanoylamino)-4-octadecen-3-ol], for which, at β-glucocerebrosidase [1], the “inhibition of β-glucocerebrosidase activity (in words)” value was “strongly and specifically inhibited the β-glucocerebrosidase activity alone; also recorded: almost completely inhibited the β-glucocerebrosidase activity”; the inhibition at 10 µM was found to be 97.7%; the IC50 was determined as 100 nM; the “enhancement of β-glucocerebrosidase inhibition compared with C-1 and C-3 (in words)” value was “extremely enhanced”. Also, at 10 µM the inhibition against β-galactocerebrosidase [2] was 0%. On β-glucocerebrosidase [3], the inhibition at 40 µM is 99% and the concentration for half-maximal inhibition (IC50) was determined as 440 nM. The “40 μM inhibition (%)” value in the test on β-galactocerebrosidase [4] is on record as 1%.
For `CCCCCCCCCCCCC/C=C/[C@@H](O)[C@H](CO[C@@H]1C[C@H](CO)[C@@H](O)[C@H](O)[C@H]1O)NC(=O)CCCCCCCCCCCCCCC` [Compound C-5, reference compound], at β-glucocerebrosidase [3], the inhibition at 40 µM worked out at 0%. Further, the “40 μM inhibition (%)” value in the test on β-galactocerebrosidase [4] turned out to be 31%.
Turning to `CCCCCCCCCCCCC/C=C/[C@@H](O)[C@H](CN[C@@H]1C=C(CO)[C@@H](O)[C@H](O)[C@H]1O)NC(=O)CCCCCCCCCCCCCCC` [Compound 1E, (2S,3R,4E)-1-[(5a-carba-β-D-xylo-hex-5-enopyranosyl)amino]-2-(hexadecanoylamino)-4-octadecen-3-ol], at β-glucocerebrosidase [1], the “inhibition of β-glucocerebrosidase activity (in words)” value is “strongly and specifically inhibited the β-glucocerebrosidase activity alone; also recorded: almost completely inhibited the β-glucocerebrosidase activity”; testing at 10 µM gave an inhibition of 95.2%; inhibition was half-maximal at 300 nM (IC50); the “enhancement of β-glucocerebrosidase inhibition compared with C-1 and C-3 (in words)” value was “extremely enhanced”. At 10 µM the inhibition against β-galactocerebrosidase [2] was 0%. For the same compound, at β-glucocerebrosidase [3], the inhibition at 40 µM was 97% and the half-maximal inhibitory concentration (IC50) stood at 580 nM. Also, the “40 μM inhibition (%)” value with β-galactocerebrosidase [4] is given as 1%.
With `CCCCCCCCCCCCC/C=C\[C@@H](O)[C@H](CN[C@@H]1C[C@H](CO)[C@H](O)[C@H](O)[C@H]1O)NC(=O)CCCCCCCCCCCCCCC` [Compound C-4, reference compound], the inhibition at 10 µM against β-glucocerebrosidase [1] was determined as 0%; against β-galactocerebrosidase [2], 15.4%. For the same compound, the “inhibition of β-galactocerebrosidase activity (in words)” value against β-galactocerebrosidase [2] is reported as “slightly inhibited the β-galactocerebrosidase activity”.

The values above are taken from patent US5861520A, “Glycolipid analogs” (Seikagaku Kogyo Kabushiki Kaisha (Seikagaku Corporation), priority 1994, dated 1999).
